Data reported in PMC3757248, “Antiestrogen-binding site ligands induce autophagy in myeloma cells that proceeds through alteration of cholesterol metabolism” (Oncotarget, 2013).
Where two headings read alike, the source gives them in different places.

Columns and labels:
RPMI 8226 = tested on: RPMI 8226; design: method as in earlier work; details: cited from earlier work
OPM-2 = tested on: OPM-2; design: method as in earlier work; details: cited from earlier work
NCI-H929 = tested on: NCI-H929; design: method as in earlier work; details: cited from earlier work
LP-1 = tested on: LP-1; design: method as in earlier work; details: cited from earlier work
RPMI 8226 and LP-1 cells = test: Cell viability, MTT assay; assay type: cell-based, human; details: for cell death (viable cells, MTT assay): 1 μM LY 294002, 10 nM everolimus, 10 μM RU 39411, 40 μM PBPE; for sensitivity to dexamethasone (MTT assay): 10 μM dexamethasone 24 h, RU 39411 10 μM for 2 h before
Procedure: RPMI 8226 were obtained from R Bataille (CLCC, Nantes, France) and LP-1 cells from D Bouscary (Institut Cochin, Paris, France). At their arrival, the identity of cells was checked by karyotyping and surface markers expression; cells were then amplified and frozen. HMCLs were maintained in RPMI 1640 medium (Lonza, Basel, Switzerland) supplemented with 2 mM L-glutamine (Lonza) and 10% FCS (fetal calf serum) (PAA Laboratories, Velizy-Villacoublay, France). In experiments with AEs, cells were cultured in phenol red-free medium plus FCS. AEs were dissolved in ethanol (EtOH) to obtain 10 mM stock solution and then diluted into medium immediately before use. For controls, vehicle was added at the same final concentration. Cell viability was determined using CellTiter 96® AQueous One Solution (MTT [([3]-([4],[5])-dimethylthiazol-[2]-yl)-[2],[5]-diphenyltetrazolium bromide] assay, Promega, Charbonnières, France) according to the supplier's instructions.

AEBS [1] = molecular target: T1, AEBS (Homo sapiens, UniProt Q15125+Q9UBM7); test: Binding to the AEBS in RPMI 8226
RPMI 8226 cells [2] = test: Presence of 5,6-EC in cells by GC/MS; assay type: cell-based, human; details: 48 h, 10 μM drug (PBPE 40 μM)
Procedure: (§1) The organic layer was reduced to dryness under a flux of argon and the residue was resuspended in ethanol. Sterols were analyzed by liquid chromatography and gas-liquid chromatography as described before. Neutral lipids and sphingomyelin analyses were done according to previously published procedures.

LP-1 cells [3] = test: Presence of 5,6-EC in cells by GC/MS; assay type: cell-based, human; details: 48 h, 10 μM drug (PBPE 40 μM)
Procedure: as §1

RPMI 8226 cells [4] = test: Electron microscopy for MLBs, AVs and UVs; assay type: cell-based, human; details: 48 h, 10 μM drug (PBPE 40 μM)
ChEH [5] = molecular target: T2, ChEH (Homo sapiens, UniProt Q15125+Q9UBM7); test: ChEH activity measured on intact cells; assay type: cell-based; design: endogenous in cells; host or cells: RPMI 8226 human multiple myeloma cell lines; details: RPMI 8226 intact cells, [14C]-5,6-EC 0.6 μM, drugs 1 nM to 10 μM over 24 h; read-out: ChEH IC50
Text: (§2) Cells were then pelleted and extracted with chloroform/methanol (2/1). The organic layer was reduced to dryness under a flux of argon and the residue was resuspended in EtOH. Samples were applied to thin layer chromatography (TLC) plates and developed using ethyl acetate as previously described. The radioactive metabolites were visualized by autoradiography using Kodak Biomax MS films.

RPMI 8226 cells [6] = test: Sterols accumulated in cells, HPLC and GC/MS; assay type: cell-based, human; details: RPMI 8226, 48 h incubation
Procedure: as §1

LP-1 cells [7] = test: Sterols accumulated in cells, HPLC and GC/MS; assay type: cell-based, human; details: LP1, 48 h incubation
Procedure: as §1

ChEH [8] = molecular target: T2, ChEH; test: ChEH activity measured on intact cells; assay type: cell-based; design: endogenous in cells; host or cells: LP-1 human multiple myeloma cell lines; details: LP-1 intact cells, [14C]-5,6-EC 0.6 μM, drugs 1 nM to 10 μM over 24 h; read-out: ChEH IC50
Text: as §2

AEBS [9] = molecular target: T1, AEBS; test: Binding to the AEBS in LP1; design: endogenous in cells; host or cells: LP-1 human multiple myeloma cell lines
HMCLs = test: Free sterol accumulation in HMCLs; assay type: cell-based, human
Procedure: as §1

LP-1 cells [10] = test: Electron microscopy for MLBs, AVs and UVs; assay type: cell-based, human; details: 48 h, 10 μM drug (PBPE 40 μM)
AEBS [11] = molecular target: T1, AEBS; test: Binding to the AEBS in HMCLs; design: endogenous in cells; host or cells: RPMI 8226 and LP-1 human multiple myeloma cell lines
ChEH [12] = molecular target: T2, ChEH; test: ChEH activity in HMCLs (TLC); assay type: cell-based; design: endogenous in cells; host or cells: RPMI 8226 and LP-1 human multiple myeloma cell lines; details: OHT, Tam, RU 58668 10 μM, PBPE 40 μM
Text: as §2

[13] = RPMI 8226, presence of 500 μM Vit E

T2 sequence (Q15125 whole entry): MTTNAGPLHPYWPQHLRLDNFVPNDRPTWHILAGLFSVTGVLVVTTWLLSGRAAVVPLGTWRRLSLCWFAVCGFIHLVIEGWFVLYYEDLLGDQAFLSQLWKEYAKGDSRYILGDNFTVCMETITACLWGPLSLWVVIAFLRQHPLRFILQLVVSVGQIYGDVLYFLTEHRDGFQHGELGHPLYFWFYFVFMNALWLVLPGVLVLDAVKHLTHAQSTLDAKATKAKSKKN
T2 sequence (Q9UBM7 whole entry): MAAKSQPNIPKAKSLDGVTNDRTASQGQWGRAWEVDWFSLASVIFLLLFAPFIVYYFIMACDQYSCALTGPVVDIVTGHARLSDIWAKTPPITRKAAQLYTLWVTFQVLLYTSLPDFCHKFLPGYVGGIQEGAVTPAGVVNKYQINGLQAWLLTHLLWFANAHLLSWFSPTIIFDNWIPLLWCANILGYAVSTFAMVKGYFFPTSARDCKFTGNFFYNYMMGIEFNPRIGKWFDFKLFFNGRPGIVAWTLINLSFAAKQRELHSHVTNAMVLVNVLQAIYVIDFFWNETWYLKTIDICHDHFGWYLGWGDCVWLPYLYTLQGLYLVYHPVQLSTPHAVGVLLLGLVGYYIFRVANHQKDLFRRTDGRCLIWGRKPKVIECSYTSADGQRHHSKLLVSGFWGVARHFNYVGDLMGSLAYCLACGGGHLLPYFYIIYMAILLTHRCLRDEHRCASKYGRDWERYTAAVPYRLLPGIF
T1 sequence (Q15125 whole entry): as the sequence (Q15125 whole entry) above
T1 sequence (Q9UBM7 whole entry): as the sequence (Q9UBM7 whole entry) above

Structure (SMILES) | cell death (viable cells, MTT assay) (RPMI 8226 and LP-1 cells) | 5,6-EC (RPMI 8226 cells [2]; RPMI 8226, absence of Vit E) | 5,6-EC (RPMI 8226 cells [2]; [13]) | 5,6-EC (LP-1 cells [3]; LP-1, absence of Vit E) | 5,6-EC (LP-1 cells [3]; LP-1, presence of 500 μM Vit E) | AV (RPMI 8226 cells [4]; RPMI 8226, absence of Vit E) | MLB (RPMI 8226 cells [4]; RPMI 8226, absence of Vit E) | UV (RPMI 8226 cells [4]; RPMI 8226, absence of Vit E) | AV (RPMI 8226 cells [4]; [13]) | MLB (RPMI 8226 cells [4]; [13]) | UV (RPMI 8226 cells [4]; [13]) | Desmosterol (RPMI 8226 cells [6]) | Zymostenol (RPMI 8226 cells [6]) | Desmosterol (LP-1 cells [7]) | Zymostenol (LP-1 cells [7]) | free sterol accumulated (HMCLs) | AV (LP-1 cells [10]; LP-1, absence of Vit E) | MLB (LP-1 cells [10]; LP-1, absence of Vit E) | UV (LP-1 cells [10]; LP-1, absence of Vit E) | AV (LP-1 cells [10]; LP-1, presence of 500 μM Vit E) | other results
C[C@]12CC[C@@H]3c4ccc(O)cc4C[C@@H](CCCCCCCCC[S+]([O-])CCCC(F)(F)C(F)(F)F)[C@H]3[C@@H]1CC[C@@H]2O (stereo partly shown) [Fulvestrant] |  |  |  |  |  |  |  |  |  |  |  |  |  |  |  |  |  |  |  |  | SERM and SERDs effects on MM cell lines (RPMI 8226): Apoptosis; SERM and SERDs effects on MM cell lines (OPM-2): G1-arrest; SERM and SERDs effects on MM cell lines (NCI-H929): Apoptosis; SERM and SERDs effects on MM cell lines (LP-1): G1-arrest
O=c1cc(N2CCOCC2)oc2c(-c3ccccc3)cccc12 [LY 294002] | induced cell death |  |  |  |  |  |  |  |  |  |  |  |  |  |  |  |  |  |  |  | 
CN(C)CCOc1ccc([C@H]2C[C@]3(C)[C@@H](O)CC[C@H]3[C@@H]3CCc4cc(O)ccc4[C@H]32)cc1 [RU 39411, 11β-(4-(2-(dimethylamino)-ethoxy)-phenyl)estra-1,3,5(10)-triene-3,17β-diol] | cell death that was strictly caspase-independent | + | − | + | − | + + (The sign + means that 80 % cells were positive and contained at least 5 vesicles) | + + (The sign + means that 80 % cells were positive and contained at least 5 vesicles) | + (The sign + means that 80 % cells were positive and contained at least 5 vesicles) | + + (The sign + means that 80 % cells were positive and contained at least 5 vesicles) | + + (The sign + means that 80 % cells were positive and contained at least 5 vesicles) | − (otherwise they were considered as negative (-)) | 41.5 percent by the weight of total sterol | 1.8 percent by the weight of total sterol | 46.4 percent by the weight of total sterol | 1.7 percent by the weight of total sterol | accumulation of desmosterol | + + (The sign + means that 80 % cells were positive and contained at least 5 vesicles) | + + (The sign + means that 80 % cells were positive and contained at least 5 vesicles) | + (The sign + means that 80 % cells were positive and contained at least 5 vesicles) | + + (The sign + means that 80 % cells were positive and contained at least 5 vesicles) | Ki (AEBS [1]): 29.4 ± 5.5 nM; IC50 (ChEH [5]): 632 ± 22 nM; IC50 (ChEH [8]): 727 ± 31 nM; Ki (AEBS [9]): 27.4 ± 3.1 nM; MLB (LP-1 cells [10]; LP-1, presence of 500 μM Vit E): + + (The sign + means that 80 % cells were positive and contained at least 5 vesicles); UV (LP-1 cells [10]; LP-1, presence of 500 μM Vit E): − (otherwise they were considered as negative (-)); sensitivity to dexamethasone (MTT assay) (RPMI 8226 and LP-1 cells): restores the sensitivity; affinity for the AEBS (AEBS [11]): high affinity
CC/C(=C(\c1ccccc1)c1ccc(OCCN(C)C)cc1)c1ccccc1 [Tam, Tamoxifen] |  | + | − | + | − | + + (The sign + means that 80 % cells were positive and contained at least 5 vesicles) | + + (The sign + means that 80 % cells were positive and contained at least 5 vesicles) | + (The sign + means that 80 % cells were positive and contained at least 5 vesicles) | + + (The sign + means that 80 % cells were positive and contained at least 5 vesicles) | + + (The sign + means that 80 % cells were positive and contained at least 5 vesicles) | − (otherwise they were considered as negative (-)) | 0.2 percent by the weight of total sterol | 35.9 percent by the weight of total sterol | 0.2 percent by the weight of total sterol | 38.2 percent by the weight of total sterol | accumulation zymostenol | + + (The sign + means that 80 % cells were positive and contained at least 5 vesicles) | + + (The sign + means that 80 % cells were positive and contained at least 5 vesicles) | + (The sign + means that 80 % cells were positive and contained at least 5 vesicles) | + + (The sign + means that 80 % cells were positive and contained at least 5 vesicles) | ChEH activity, conversion of 5,6-EC into CT by TLC (ChEH [12]): ChEH activity was inhibited; MLB (LP-1 cells [10]; LP-1, presence of 500 μM Vit E): + + (The sign + means that 80 % cells were positive and contained at least 5 vesicles); UV (LP-1 cells [10]; LP-1, presence of 500 μM Vit E): − (otherwise they were considered as negative (-)); affinity for the AEBS (AEBS [11]): high affinity
C[C@@H]1C[C@H]2[C@@H]3CCC4=CC(=O)C=C[C@]4(C)[C@@]3(F)[C@@H](O)C[C@]2(C)[C@@]1(O)C(=O)CO [dexamethasone] |  |  |  |  |  |  |  |  |  |  |  |  |  |  |  |  |  |  |  |  | sensitivity to dexamethasone (MTT assay) (RPMI 8226 and LP-1 cells): resistant
CO[C@H]1C[C@@H]2CC[C@@H](C)[C@@](O)(O2)C(=O)C(=O)N2CCCC[C@H]2C(=O)O[C@H]([C@H](C)C[C@@H]2CC[C@@H](OCCO)[C@H](OC)C2)CC(=O)[C@H](C)/C=C(\C)[C@@H](O)[C@@H](OC)C(=O)[C@H](C)C[C@H](C)/C=C/C=C/C=C/1C [everolimus] | induced cell death |  |  |  |  |  |  |  |  |  |  |  |  |  |  |  |  |  |  |  | 
